Data published in a melting point compilation (Tetko et al.; mined from patent text by program, amines drawn as free bases though some values may be those of a salt).

| Structure (SMILES) | melting point |
| --- | --- |
| CC(C)Cc1nc2ccc(C#N)cc2c(-c2ccccc2)c1CN | 128 to 130 °C |
| CCCc1c(OCC(O)COc2ccc3ccc(C(=O)O)cc3c2CCC)ccc(C(C)=O)c1O (stereo not drawn) | 125 to 126 °C |
| CC(O)c1ccc(NS(C)(=O)=O)c(Sc2ccc(Cl)cc2Cl)c1 (stereo not drawn) | 91 to 94 °C |
| Fc1cccc(-c2ncc(-c3cnc(-c4ccccc4)nc3)[nH]2)c1 | 221 °C |
| CCOC(=O)C1=C(C(=O)OC)CC(=O)C2=C1SC=C1C=CC=CN12 | 143 to 144 °C |
| C[C@](N)(CO)CCc1ccc2oc(-c3ccccc3)nc2c1 | 128 °C |
| CCOC(=O)CCC(C=Cc1ccc(OC)c(OC)c1)=C1SC(=S)NC1=O | 178 to 180 °C |
| CCCc1nn(-c2ccc(C(F)(F)F)cn2)cc1CCCOc1cc(CCC(=O)O)ccc1OC | 147 to 148 °C |
| CCCc1nc2c(N)nc(C)c(C)c2n1C1(OC)CCCCC1 | 192 to 193 °C |
| O=C(O)C(=O)c1ccc(OCCOc2ccc3ccccc3c2)cc1 | 144 to 145 °C |
| CSc1cc(SC)c(SC)cc1NC(C)=O | 87 to 89 °C |
| Nc1c(-c2ccccc2)c(=O)[nH]c2cc(Cl)ccc12 | 337 to 338 °C |
| CC(C)=C1CC(=O)N(c2cc(F)c(C#N)cc2F)C1=O | 135 °C |
| CC(=O)CN(C(=O)Cc1ccccc1)C(C)(C)c1cccc(Cl)c1 | 98 to 100 °C |
| Fc1c(F)c(F)c(CSc2nc3cnccc3[nH]2)c(F)c1F | 156 to 159 °C |
| COc1ccccc1-c1ccn2ncc(Br)c2n1 | 125 to 128 °C |
| COc1cc2cc3c(N)c(C(N)=O)sc3nc2cc1OC | 278 to 280 °C |
| CCCCCCCCCCCCCCCCSCC(O)COC(c1ccccc1)(c1ccccc1)c1ccccc1 (stereo not drawn) | 61 to 62 °C |
| O=C(O)Cc1nn(CC(=O)Nc2cc(C(F)(F)F)ccc2Br)c(=O)c2ccccc12 | 200 to 202 °C |
| CN1CCN(c2cc3c(cc2F)c(=O)n(O)c(=O)n3-c2ccc(F)c(Cl)c2)CC1 | 197 to 199 °C |
| O=C(NCc1c[nH]c(=S)n1[C@H]1CCc2c(F)cc(F)cc2C1)c1ccccn1 | 216 to 217 °C |
| CCOC(=O)C1=C(C)Nc2ccnc(OC(C)C)c2C1c1ccccc1C(F)(F)F (stereo not drawn) | 130 to 131 °C |
| O=C(O)c1ccc(NCc2cc(Br)ccc2CCc2ccccc2)cc1 | 132 to 134 °C |
| O=C1CCC2=C1C(Cc1ccccc1)(Cc1ccccc1)c1ccccc12 | 155 °C |
| CC1C(=O)N(c2ccccc2)C(=S)N1c1ccc(Oc2ccc(O)cc2)cc1 (stereo not drawn) | 106 to 108 °C |

| Structure (SMILES) | melting point |
| --- | --- |
| CCC(c1ccccc1)(c1ccccc1)c1ccnc(C(=O)O)c1 | 191 to 193 °C |
| Cc1cc(C)cc(OCC(=O)c2ccccc2Br)c1 | 74 °C |
| Cc1cccc(C)c1C(=O)c1sc(Nc2ccc(N3CCOCC3)cc2)nc1N | 221 to 223 °C |
| CC(C)(C)COc1ccc(N(CC(=O)O)C(=O)c2ccn(-c3ccc(F)cc3)c2)cc1C#N | 248 to 249 °C |
| CC(C)Cn1cc(C(=O)O)c2ccc(Cl)cc21 | 205 to 206 °C |
| CCOC(=O)N1CCN(C2=C(Cl)C(=O)c3nsnc3C2=O)CC1 | 152 to 154 °C |
| COCCOC(=O)C1=C(C)NN=C(C(=O)OC(C)C)C1c1cccc([N+](=O)[O-])c1 (stereo not drawn) | 146 to 148 °C |
| CCOC(=O)C1=CC2(CCC1S(=O)(=O)Nc1ccc(F)cc1Cl)SCCS2 (stereo not drawn) | 160 to 161 °C |
| NC(=O)[C@@H]1[C@H](Nc2c(Br)cnc3[nH]c(-c4cccc(N5CCOCC5)c4)nc23)[C@H]2C=C[C@@H]1C2 | 232 to 234 °C |
| Cn1c(C(N)=O)c(-c2ccc(F)cc2)c2ncccc2c1=O | 300 to 301 °C |
| CC(C)(C)OC(=O)N[C@H](CNC(=O)Nc1ccccc1)Cc1ccccc1 | 154 °C |
| c1ccc2c(c1)OCC(CN1CCC(CNc3nc4cc5c(cc4s3)OCO5)CC1)O2 (stereo not drawn) | 160 °C |
| CCCn1c(=O)c2c(nn3cc(-c4cccc(OC)c4)[nH]c23)n(Cc2ccccc2)c1=O | 249 to 250 °C |
| Cc1ccc(C(=O)c2cnn3c(-c4cccc(NC(=O)C5CC5)c4)ccnc23)s1 | 243 to 245 °C |
| CN(C(=O)CBr)c1ccc(Cl)cc1C(=O)c1ccccc1Cl | 86 °C |
| CC(=O)SCc1ccc(I)cc1 | 40 to 41 °C |
| Nc1ncc(CCCc2cccc3ccccc23)c(N)n1 | 179 to 181 °C |
| C=Cn1cc(C(=O)OCC)c(=O)c2cc(F)c(N3CCC(NC(=O)C(F)(F)F)C3)nc21 (stereo not drawn) | 280 to 282 °C |
| N#Cc1cccc2c1[nH]c1ccccc12 | 200 to 201 °C |
| COc1ccc(CN2CC(COC(c3ccccc3)(c3ccccc3)c3ccccc3)CC2=O)cc1 (stereo not drawn) | 171 to 173 °C |
| CC(=O)Nc1ccc(OCC2CCC=CO2)cc1 (stereo not drawn) | 114 to 116 °C |
| Cc1oc2c(-n3c(=O)cc(C(F)(F)F)n(C)c3=O)ccc(Cl)c2c1NO | 134 to 136 °C |
| Cn1c(C(F)(F)F)cc(=O)n(-c2c(F)cc(Cl)c3nc(C(C)(C)C)oc23)c1=O | 68 to 70 °C |
| c1ccc2c(C3CCNCC3)n[nH]c2c1 | 213 to 215 °C |
| CCCc1cccnc1N(CC)C1CCN(C(=O)c2ccc[nH]2)CC1 | 115 to 116 °C |

| Structure (SMILES) | melting point |
| --- | --- |
| Cc1cccc2c3c(n(Cc4ccc(Cl)cc4)c12)C(CC(=O)O)CCC3 (single isomer, unassigned; (-)) | 196 to 198 °C |
| CSc1c(C(=O)O)ccc(Br)c1F | 126 to 129 °C |
| O=c1[nH]cnc2c(CN[C@H](CO)[C@H](O)CO)c[nH]c12 | 230 °C |
| COc1cc([N+](=O)[O-])ccc1-c1ccccc1 | 71 °C |
| O=C1C[C@@H]2[C@@H](CC[C@H](CCc3ccccc3)OC3CCCCO3)[C@H](OC(=O)c3ccc(-c4ccccc4)cc3)C[C@@H]2O1 (stereo partly drawn) | 103 to 105 °C |
| CCOC(=O)c1cn(-c2nonc2C)c2nc(Cl)c(F)cc2c1=O | 211 to 216 °C |
| COc1ccc(-c2nc(COc3cccc([N+](=O)[O-])c3)c(C)o2)cc1 | 109 to 111 °C |
| N#Cc1cnn(-c2nc(Cl)c(C(F)(F)F)cc2Cl)c1N | 168 to 171 °C |
| C#CCNC(=NCCSCc1csc(NC(=N)N)n1)NC#N | 146 to 148 °C |
| CC(=O)c1cc(Br)cc(Cc2cc(Cl)cc(Cc3cc(Br)ccc3O)c2O)c1O | 185 to 186 °C |
| Cc1cnc(Cn2ncc(-c3ccc(S(C)(=O)=O)cc3)c(-c3ccc(F)cc3)c2=O)s1 | 114 to 116 °C |
| Cc1cc(Cc2cnc(NCCSCc3cc(CN(C)C)ccn3)[nH]c2=O)cnc1C | 72 to 78 °C |
| Nc1cccc(Oc2ccc(C(=O)c3ccc(C(=O)c4ccc(Oc5cccc(N)c5)cc4)cc3)cc2)c1 | 161 to 163 °C |
| Cc1cc([N+](=O)[O-])c(NC(C)C)c([N+](=O)[O-])c1NC(C)C | 96 to 97 °C |
| CCc1ccc(OCC2CO2)cc1 (stereo not drawn) | 73.5 to 74.2 °C |
| CCCCN1CC(C(=O)OC)N(S(=O)(=O)c2ccc(-c3ccc(Br)cc3)cc2)CC1=O (stereo not drawn) | 113 to 115 °C |
| O=C(NC1CCNC1=O)c1cccc(-c2cccc3oc(Cc4cccc(C(F)(F)F)c4)cc23)c1 (stereo not drawn) | 110 to 120 °C |
| CCOC(=O)[C@@H]1CSC=CN1C(=O)[C@@H](Cc1ccccc1)N1C(=O)c2ccccc2C1=O (relative stereo) | 193 °C |
| O=C(O)c1cc(I)c(F)c(F)c1F | 167 to 171 °C |
| CCCCN(CCCC)CCCOc1ccc(C(=O)c2c(C)oc3ccc([N+](=O)[O-])cc23)cc1 | 63 °C |
| CC(=O)NCc1ccc(CC[N+]2([O-])CCC(C3CCc4ccccc43)CC2)cc1 (stereo not drawn) | 130 to 131 °C |
| CC(=O)c1ccc2c(c1)Sc1ccccc1C=C2 | 82 to 84 °C |
| COc1cc(C=O)cc(C(F)(F)F)c1O | 151 to 152 °C |
| COc1cc(C(=O)O)c(-c2cc3cc(O)ccc3[nH]2)cc1OC | 160 °C |
| CC(C)(C)c1cc(CCc2ccccc2NC(=O)NC2CCN(Cc3ccc(C(F)(F)F)cc3C(F)(F)F)CC2)cc(C(C)(C)C)c1O | 156 to 157 °C |

| Structure (SMILES) | melting point |
| --- | --- |
| Cc1ccc(S(=O)(=O)NCC(CC(=O)Nc2ccc(C(=O)O)cc2)c2ccc(Cl)cc2)cc1 (stereo not drawn) | 250 to 252 °C |
| C=C(C)Cn1c(=O)n(C)c(=O)c2cn(Cc3cccc4ccccc34)nc21 | 187 to 189 °C |
| COC(=O)C=C(C(=O)OC)N1CCC23C=CC(O)CC2Oc2c(OC)ccc(c23)C1 (stereo not drawn) | 121 to 122 °C |
| Cc1ccc([N+](=O)[O-])c(NC=C2C(=O)OC(C)(C)OC2=O)c1 | 218 to 220 °C |
| CCCCn1c(=O)c(=O)[nH]c2c3ccccc3ccc21 | 269 °C |
| Cn1nc2c(N)nc3c(c2c1CC(C)(C)O)CCCC3 | 228 to 234 °C |
| COc1cc(CCc2ccc(C)cc2)cc(OC)c1OC | 51 to 52 °C |
| COC(=O)c1oc2ccc(Cl)cc2c1-c1ccccc1C(F)(F)F | 205 to 208 °C |
| C/C(=C(\C#N)C(=S)/N=C/N(C)C)N1CCCN(c2ccc(F)c(C)c2)CC1 | 148 to 150 °C |
| CNC(=O)N(C)C(=O)Nc1ccccn1 | 112 to 115 °C |
| COc1cc(Nc2c(C#N)cnc3cc(OS(=O)(=O)C(F)(F)F)c(OC)cc23)c(Cl)cc1Cl | 220 to 223 °C |
| c1ccc2[nH]c3c4ccccc4nc-3cc2c1 | 249 to 251 °C |
| O=c1[nH]c(NCCSCc2ccco2)ncc1Cc1cccnc1 | 136 to 139 °C |
| CCCC(=O)c1ccc(C(=O)O)cn1 | 128 to 130 °C |
| Cn1c(C#N)ccc1-c1cc(F)c2c(c1)C1(CC1)C(=O)N2 | 228 to 231 °C |
| Cn1cc(-c2ccccc2)c(=O)c(-c2ccc(F)cc2Cl)c1 | 190 to 192 °C |
| CCCN(CCC)C(=O)NC(CS)Cc1ccccc1 (single isomer, unassigned; (+)) | 68 °C |
| O=C1c2ccccc2C(=O)N1CC(=C(F)F)c1ccccc1 | 102 to 103 °C |
| COc1ccc(N2C(=O)/C(=C/C(C)=NO)C2c2ccccc2)cc1 (stereo not drawn) | 204 to 206 °C |
| COc1ccc(C(=Cc2c(Cl)cncc2Cl)c2ccccc2)cc1OC1CCCC1 | 138 to 140 °C |
| O=c1oc(-c2ccc(CCc3ccccc3)cc2)cc(O)c1SCCc1ccccc1 | 122 to 123 °C |
| CNC(=O)/C(=N/OC)c1ccccc1COc1ncc(Cl)cc1C(F)(F)F | 105 to 106 °C |
| CC1(C)CCC(C)(C)c2cc3c(cc21)CCc1cc(-c2ccc(C(=O)O)cc2)oc1-3 | 264 to 265 °C |
